Legend:
[1] = system: A431 vulval carcinoma cells (s.c. tumor); assay: Subcutaneous injection of A431 cells in rats: s.c. tumor growth; assay type: in vivo, rat; conditions: for Effect on subcutaneous A431 tumor growth (median s.c. tumor volumes, FIG. 1): MTKI 1 p.o. at all doses tested (50, 75, 100 mpk), BCNU i.v. day 4 and day 18; for Treatment versus Control (taking control as 100%), median s.c. A431 tumor volume: day 18, 24 hr after last treatment
Protocol: A431 (ATCC, Rockville, Md. USA) vulval carcinoma cells were stereo-tactically injected into athymic nude rats and mice. Tumor growth delay was followed by using animal survival as readout in the rat study or using MRI imaging in the case of the mouse study. Subcutaneous Injection of Cells in Rats The same day of the stereotaxic injection, rats were injected subcutaneously with A431 cells at D0. The tumor was obtained in rats by subcutaneous (SC) injection of 1×10^7 A431 cells in RPMI medium (200 μl) in their right flank. For subcutaneous injection of tumor cells, rats were anesthetised by inhalation of Isoflurane Forene (Minerve, Bondoufle, France). MTKI 1 (Compound 1 in the figures hereinafter) was dissolved in a solution of 20% Hydroxypropyl-β-cyclodextrine (20% β-HP-Cyclodextrin, pH 4.0) and given by oral gavage, daily for a period of fourteen days starting four days post inoculation of the cells, i.e. from day 4-17. Vehicle treated animals only received the β-HP-Cyclodextrin solution. The reference compound BCNU (Carmustin) was dosed intravenously on day 4 and day 18.

[2] = Clinical signs of toxicity (body weight loss, behavioral changes) in treated tumor-bearing rats; conditions: high dose 15 mpk i.v. day 4 and day 18
Protocol: (§1) MTKI 1 (Compound 1 in the figures hereinafter) was dissolved in a solution of 20% Hydroxypropyl-β-cyclodextrine (20% β-HP-Cyclodextrin, pH 4.0) and given by oral gavage, daily for a period of fourteen days starting four days post inoculation of the cells, i.e. from day 4-17. Vehicle treated animals only received the β-HP-Cyclodextrin solution.
(§2) The reference compound BCNU (Carmustin) was dosed intravenously on day 4 and day 18.

[3] = system: A431 vulval carcinoma cells (intracranial tumor); assay: Stereotaxic injection of A431 cells in the brain of rats: animal survival; assay type: in vivo, rat; conditions: rats with intracranial and s.c. A431 tumors, vehicle 49
Source text: A431 (ATCC, Rockville, Md. USA) vulval carcinoma cells were stereo-tactically injected into athymic nude rats and mice. Tumor growth delay was followed by using animal survival as readout in the rat study or using MRI imaging in the case of the mouse study.
Stereotaxic Injection of Cells in the Brain of Rats
Forty (40) rats (Wistar, BDIX or Sprague Dawley) in part I and 40 nude rats were sterotaxically injected with cells at D0. For stereotaxic injection of tumor cells, rats were anesthetised by an intramuscular injection of a Ketamine (Ketamine500®, Ref 043KET204, Centravet, France) and Xylazine (Rompun®, Ref 002ROM001, Centravet, France) mixture (2/1, v/v, 70 and 15 mg/kg, respectively). 1×10^5 A431 Cells were stereotaxically injected using 4 independant stereotaxic apparatus (Kopf Instrument, Germany and Stoelting Company, USA) in the right frontal lobe with 1×10^5 tumor cells re-suspended in 5 μl of RPMI medium. Five μl of the cell suspension was injected according to SOP No TEC-083/001 at 0.5 μl/min. After cells injection, rats were observed during 1 hour.
as §1, §2

Structure (SMILES) | Effect on subcutaneous A431 tumor growth (median s.c. tumor volumes, FIG. 1) [1] | Clinical signs of toxicity, i.e. body weight loss [2] | Survival times (50%) ([3]; 50 mpk p.o. daily day 4-17) | Survival times (50%) ([3]; 75 mpk p.o. daily day 4-17) | Survival times (50%) ([3]; 100 mpk p.o. daily day 4-17) | Treatment versus Control (taking control as 100%), median s.c. A431 tumor volume ([1]; 50 mpk p.o. QDx14 (day 4-17)) | Treatment versus Control (taking control as 100%), median s.c. A431 tumor volume ([1]; 75 mpk p.o. QDx14 (day 4-17)) | Treatment versus Control (taking control as 100%), median s.c. A431 tumor volume ([1]; 100 mpk p.o. QDx14 (day 4-17))
O=NN(CCCl)C(=O)NCCCl [BCNU, reference compound] | no effect | may have induced some mild toxicity | – | – | – | – | – | –
COc1cc2ncnc3c2cc1OCCCCCN(C)Cc1ccc(Br)cc1N3 [MTKI 1, 4,6-ethanediylidenepyrimido[4,5-b][6,1,12]benzoxadiazacyclo-pentadecine, 17-bromo-8,9,10,11,12,13,14,19-octahydro-20-methoxy-13-methyl] | clearly inhibited | – | 61 days | 83 days | 88 days | 5.37% | 4.29% | 3.17%

— patent US20080153853A1, “USE OF MTKI 1 FOR TREATING OR PREVENTING BRAIN CANCER” (priority 2006, published 2008)
